Test results reported in US20210002262A1, “CYANOPYRROLIDINES AS USP30 INHIBITORS AND FIBROSIS TREATMENT” (MISSION THERAPEUTICS LIMITED, priority 2018, published 2021).
Entries after “also recorded” stand apart in the source; their conditions may differ.

Assays:
USP30 = target: T1, USP30 (Homo sapiens, UniProt Q70CQ3); assay: USP30 biochemical IC50 assay; conditions: Examples of WO 2017/103614
T1 sequence (Q70CQ3 1-517): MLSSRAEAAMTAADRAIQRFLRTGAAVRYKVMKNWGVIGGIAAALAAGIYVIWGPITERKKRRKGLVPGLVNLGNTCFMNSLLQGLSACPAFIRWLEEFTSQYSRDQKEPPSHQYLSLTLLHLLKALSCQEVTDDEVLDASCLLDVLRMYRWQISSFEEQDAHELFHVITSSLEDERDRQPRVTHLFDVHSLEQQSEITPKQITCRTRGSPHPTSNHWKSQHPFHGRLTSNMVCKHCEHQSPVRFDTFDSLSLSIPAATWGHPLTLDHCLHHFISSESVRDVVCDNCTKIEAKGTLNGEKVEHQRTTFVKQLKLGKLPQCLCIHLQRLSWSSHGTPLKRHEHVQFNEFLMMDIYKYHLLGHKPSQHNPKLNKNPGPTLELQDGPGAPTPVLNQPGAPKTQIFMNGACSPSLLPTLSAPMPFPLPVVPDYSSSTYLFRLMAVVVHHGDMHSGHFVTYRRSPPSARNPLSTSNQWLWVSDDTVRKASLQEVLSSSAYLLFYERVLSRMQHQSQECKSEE
Protocol: Dilution plates were prepared at 21 times the final concentration (2100 μM for a final concentration of 100 μM) in 50% DMSO in a 96-well polypropylene V-bottom plate (Greiner #651201). A typical 8-point dilution series would be 100, 30, 10, 3, 1, 0.3, 0.1, 0.03 μM final. Reactions were performed in duplicate in black 384 well plates (small volume, Greiner 784076) in a final reaction volume of 21 μl. Either 1 μl of 50% DMSO or diluted compound was added to the plate. USP30 was diluted in reaction buffer (40 mM Tris, pH 7.5, 0.005% Tween 20, 0.5 mg/ml BSA, 5 mM beta-mercaptoethanol) to the equivalent of 0.05 μl/well and 10 μl of diluted USP30 was added to the compound. Enzyme and compound were incubated for 30 min at room temp. Reactions were initiated by the addition of 50 nM of TAMRA labelled peptide linked to ubiquitin via an iso-peptide bond as fluorescence polarisation substrate. Reactions were read immediately after addition of substrate and following a 2-hour incubation at room temperature. Readings were performed on a Pherastar Plus (BMG Labtech). λ Excitation 540 nm; λ Emission 590 nm.

[1] = test system: Unilateral ureteral obstruction (UUO) kidney fibrosis; assay: Unilateral ureteral obstructive kidney disease model (UUO); format: in vivo; conditions: for In life mortality / collagen (picrosirius red staining): UUO
Description: In this study, adult C57B16 female mice at 7 to 8 weeks of age with average weight of around 18 to 20 g were used. To complete the ureteral obstruction, the abdominal cavity was exposed via a midline incision and the left ureter was ligated at two points with 4-0 silk and dissected. Successful unilateral ureteral obstruction was later confirmed by observation of dilation of the renal pelvis due to hydronephrosis.
At harvest, mice were anesthetised and both kidneys were harvested; the contralateral kidney serves as control for the UUO kidney. The kidneys were dissected along median line into two parts, of which one side was fixed in formaldehyde, for paraffin embedding and the other was snap frozen for protein or RNA isolation.
Formalin fixed tissue were embedded in paraffin blocks and cut into 5 μm sections. All damaged kidneys, 5 contralateral kidneys from each group and 3 sham kidneys were analysed (in total n=80 kidney samples). Picrosirius Red and α-SMA stain was performed to evaluate fibrotic changes and myofibroblast activation. Analysis was performed by a pathology trained technical staff member, without knowledge of the animal group assignment. High magnification images were taken of each slide an analysed for the surface area covered by the stain.

diet-induced NAFLD/NASH = assay: Diet-induced model of NAFLD/NASH; format: in vivo, mice; conditions: 8 weeks
Protocol: Mice were fed Amylin-diet (D09100301, Research Diets, US; 40% fat (18% trans-fat), 40% carbohydrate (20% fructose) and 2% cholesterol) for 37 weeks. Liver biopies were harvested and mice were randomization into treatment groups based on liver Colla1 quantification. Three weeks following biopsy surgery, study animals were dosed orally (P.O.) with either; Vehicle (0.5% HPMC/0.5% PVP/0.1% SDS nanosuspension), MT#1 @ 15 mg/kg QD or MT#1 @ […] QD […] or with Elafibranor @ 30 mg/kg QD (positive control) for eight (8) weeks. A control group of age- and sex-matched mice fed lean chow diet ad libitum were also administered vehicle (P.O) over the same 8 (eight) week period. Following the full dosing schedule, mice were sacrificed, whole livers resected and weighed, fixed in paraformaldehyde before being paraffin embedded. H&E stained slides were then prepared and the average % fractional area of lipid vacuoles (steatosis) determined for each section (@ 20×objective) using Visiomorph software (Visophram, Denmark). The average % fractional area was multiplied by the total liver weight to determine the total liver lipid content per animal. Values expressed as mean of n=9-12+SEM. Dunnett's test one-factor linear model. **: P<0.01, ***: P<0.001 compared to DIO-NASH Vehicle.
Summary of fibrosis stage scores of pre- and post-study liver biopsies harvested from the diet-induced NAFLD/NASH study. Fibrosis stage scores are determined by assessment of picosirius red stained liver sections for relative appearance and location of collagen staining, where; 0=No staining, 1=Perisinusoidal or periportal, 2=Perisinusoidal and periportal and […]=Bridging collagen staining observed. For each group of animals with higher (worsening), same or lower (improvement) in score at post-compared to pre-study is indicated by the height of the bar. One-sided Fisher's exact test with Bonferroni correction. No differences at significance level 0.05.

[2] = test system: Bleomycin-induced lung fibrosis; assay: Bleomycin-induced lung fibrosis model; conditions: for In life mortality: oral, days 7 to 21, bleomycin 1.5 U/kg
Protocol: Treatment group animals (n=10/group) received 1.5 U/kg of clinical bleomycin via oropharyngeal route on day 0 under inhalant anaesthesia. Animals were monitored for tolerance of the bleomycin administration procedure and subsequently bodyweights of all mice were recorded at least 3 times per week during the study. […] All treatments were administered orally.
At day 21, lungs were harvested from each animal and weighed, followed by fixation in 10% neutral buffered formalin (NBF) for histopathological analysis. The lung samples were processed and embedded with all lobes from each mouse in one paraffin block. Coronal sections through the four major lobes were stained with Masson's Trichrome. For each animal, consecutive lung fields were examined at 200×magnification in a raster pattern using a 20×objective lens and a 10×ocular lens. […] The Fibrotic Index was calculated as the sum of the modified Ashcroft field scores divided by the number of fields examined.

In the case of N#Cc1cccc(-c2nnc(C(=O)NC[C@H]3CCN(C#N)C3)o2)c1 [Example 68, (R)-5-(3-cyanophenyl)-N-((1-cyanopyrrolidin-3-yl)methyl)-1,3,4-oxadiazole-2-carboxamide], the IC50 (USP30) is reported as < 10 nM, the In life mortality ([1]; 5 mg/kg MT#1 nanosuspension BID PO, days 0 to 10) is reported as 10% and the “collagen (picrosirius red staining)” value ([1]; 15 mg/kg BID MT#1) is reported as “Statistically significant decreases”. The In life mortality ([1]; 15 mg/kg MT#1 nanosuspension BID PO, days 0 to 10) was 0%, the “collagen (picrosirius red staining)” value ([1]; 50 mg/kg BID MT#1) was “Statistically significant decreases” and the In life mortality ([1]; 50 mg/kg MT#1 nanosuspension BID PO, days 0 to 10) was 10%. The “collagen deposition as measured by picrosirius red staining” value ([1]; UUO, 5, 15, 50 mg/kg BID PO, days 0 to 10) was “dose dependent decrease”, the “total liver lipid content, reduction” value (diet-induced NAFLD/NASH; NASH animals, MT#1 15 mg/kg BID (P.O.), compared to DIO-NASH Vehicle) was “statistically significant” and the “total liver lipid content” value (diet-induced NAFLD/NASH; NASH animals, P.O., dose dependence) was “dose-dependent reduction”. The liver steatosis (diet-induced NAFLD/NASH; diet-induced NAFLD/NASH, P.O., Elafibranor 30 mg/kg QD) was “statistically significant reduction”, the “fibrotic stage scores (picosirius red stained liver sections, post- compared to pre-study biopsy)” value (diet-induced NAFLD/NASH; diet-induced NAFLD/NASH, P.O., Elafibranor 30 mg/kg QD, listed as MT#1) was “Neither MT#1 or Elafibranor (positive control) significantly improved; also recorded: did not significantly improve” and the In life mortality ([2]; 5 mg/kg MT#1 nanosuspension BID) was 10%. For the same molecule, the In life mortality ([2]; 15 mg/kg MT#1 nanosuspension BID) was 10%, the “fibrosis as assessed by the modified Ashcroft score, effect compared to vehicle” value ([2]; 50 mg/kg BID oral, one-way ANOVA + Tukey) was “statistically significant effect compared to vehicle” and the In life mortality ([2]; 50 mg/kg MT#1 nanosuspension BID) was 0%. The “fibrosis as assessed by the modified Ashcroft score (collagen deposition, septae thickening)” value ([2]; dose ranging 5, 15, 50 mg/kg BID oral, days 7 to 21, harvest day 21) was “dose dependent reduction”.
